According to patent US10815208B2, “Method for preparing 2-hydroxyl-4-(2, 3-disubstituted benzyloxy)-5-substituted benzaldehyde derivative” (Institute of Materia Medica, Chinese Academy of Medical …, priority 2016, dated 2020):

Columns and labels:
PD-1/PD-L1 = PD-1/PD-L1 (Homo sapiens (Human), UniProt Q9NZQ7); assay: Cisbio HTRF binding assay, PD-1/PD-L1 small molecule inhibitor screening; conditions: for IC50: HTRF, PD-1 (HIS tag) / PD-L1 (hFc tag), 8-10 concentrations
From the text: In vitro activity evaluation: Cisbio HTRF binding assay kit was applied for the detection method of in vitro enzymology level.
Screening Principles and Methods of PD-1/PD-L1 Small Molecule Inhibitors
1) Principle: PD-1 protein is with HIS tag, and PD-1 ligand PD-L1 is with hFc tag. Eu labeled anti-hFc antibody and XL665 labeled anti-HIS antibody are combined with the above two label proteins respectively. After laser excitation, energy can be transferred from donor Eu to receptor XL665, allowing XL665 to glow.
2) Experimental method: Reagents should be dispensed in the following order. For 384-well white ELISA plate, 2 μl of diluent or target compound diluted with diluent was added to each well, and then 4 μl of PD-1 protein and 4 μl of PD-L1 protein were added per well, incubated for 15 min at the room temperature; and 10 μl of anti-Tag1-Eu3^+ and anti-Tag2-XL665 was added per well and incubated for 1 h at the room temperature and the fluorescence signals at 665 nm and 620 nm were measured. HTRF rate=(665 nm/620 nm)*10^4. 8-10 concentrations were detected for each compound and IC50 was calculated by Graphpad software.

[1] = tested on: advanced triple-negative breast cancer; conditions: in vivo; cited from earlier work
[2] = tested on: advanced Hodgkin's lymphoma (HL); conditions: advanced HL patients with no treatment response to any of the approved drugs; cited from earlier work
[3] = tested on: pleural mesothelioma (PM); conditions: 25 patients with pleural mesothelioma (PM); cited from earlier work

Chain of PD-1/PD-L1 (Q9NZQ7 19-238): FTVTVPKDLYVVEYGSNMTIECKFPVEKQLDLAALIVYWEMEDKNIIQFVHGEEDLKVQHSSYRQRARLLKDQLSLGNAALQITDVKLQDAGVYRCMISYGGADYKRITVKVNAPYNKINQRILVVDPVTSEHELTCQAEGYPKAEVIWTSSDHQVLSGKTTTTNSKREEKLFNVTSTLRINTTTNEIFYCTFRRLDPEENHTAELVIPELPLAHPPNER

| Compound | inhibition of the interaction between PD-1 and PD-L1 (PD-1/PD-L1) | IC50 (PD-1/PD-L1) [nM] | treatment response [2] | other results |
| --- | --- | --- | --- | --- |
| CC(=O)NCCNCc1cc(Cl)c(OCc2cccc(-c3ccccc3)c2Br)cc1OCc1cccc(C#N)c1 [Example 2, N-acetylaminoethyl-4-(2-bromo-3-phenylbenzyloxy)-2-(3-cyanobenzyloxy)-5-chlorobenzylamine] | significantly inhibit | 62.3 |  |  |
| (R)—N-[2-(5-cyanopyridine-3-methyleneoxy)-4-(2-methyl-3-(2,3-dihydrobenzo[b][1,4]dioxin-6-yl)benzyloxy)-5-chlorobenzyl]-3-(pyridin-3-yl)alanine [Example 6] | significantly inhibit | 35 |  |  |
| MPDL3280A: Roche's PD-L1 monoclonal antibody |  |  |  | effect in advanced triple-negative breast cancer [1]: long-lasting effect |
| nivolumab [Opdvio] |  |  | complete remission |  |
| pembrolizumab [Keytruda] |  |  | complete remission | disease control rate [3]: 76%; overall response rate (ORR) [3]: 28% |
